{"source": "paper PMC9848270", "about": "“Synthesis and biological assessment of indole derivatives containing penta-heterocycles scaffold as novel anticancer agents towards A549 and K562 cells” (Journal of Enzyme Inhibition and Medicinal Chemistry, 2023)", "key": {"[1]": {"test_system": "human non-small cell lung cancer cells (A549)", "assay": "MTT antiproliferative assay, A549", "format": "cell-based", "experimental": "(§1) A549, PC-3, HepG2 and K562 cells were purchased from the Kunming cell bank of the Chinese academy of sciences. All cell lines were cultured in DMEM or RPMI 1640 complete medium. Logarithmic growth cells were cultured in 96-well plates at a concentration of 10^4 cells per well and pre-cultured for 24 h before adding test compounds. The MTT test with 5-Fluorouracil and Gefitinib as reference compounds were used to evaluate antiproliferative activity of target compounds in four human cancer line cells. For the estimation of the inhibition concentration (IC50), the Graph Pad Prism (GraphPad Software, San Diego, CA) was used."}, "[2]": {"test_system": "human prostate cancer cells (PC-3)", "assay": "MTT antiproliferative assay, PC-3", "format": "cell-based", "details": "for IC50: 48 h, MTT assay, read-out: In vitro cytotoxicity IC50, PC-3", "experimental": "as §1"}, "[3]": {"test_system": "human liver cancer cells (HepG2)", "assay": "MTT antiproliferative assay, HepG2", "format": "cell-based", "experimental": "as §1"}, "[4]": {"test_system": "human chronic myeloid leukaemia cells (K562)", "assay": "MTT antiproliferative assay, K562", "format": "cell-based", "experimental": "as §1"}, "[5]": {"assay": "MTT cytotoxicity, normal cell line HEK293", "format": "cell-based, human", "details": "human"}, "[6]": {"test_system": "normal cell line (HEK293)", "assay": "MTT cytotoxicity, normal cell line HEK293", "format": "cell-based, human", "details": "Homo sapiens, HEK293; 10 μM; read-out: Inhibition rate, HEK293"}, "A549 cells [7]": {"test_system": "A549 cells", "assay": "Annexin V-FITC/PI apoptosis flow cytometry, A549", "format": "cell-based, human", "details": "48 h, annexin V-FITC/PI", "experimental": "(§2) Annexin-V/FITC assay, after the adherent cells grew stably in the 6-well plate, each group was reacted with different concentrations of compound solutions for 48 h. Then, cells were collected by trypsinization without EDTA, rinsed twice with PBS, followed by the Annexin V-FITC/PI apoptosis detection kit (Solarbio, Bei Jing, China) according to the kit instructions, flow cytometry by BD FACSCalibur instrument (American BD Company Shanghai Co., Ltd.)."}, "K562 cells [8]": {"test_system": "K562 cells", "assay": "Annexin V-FITC/PI apoptosis flow cytometry, K562", "format": "cell-based, human", "details": "48 h, annexin V-FITC/PI", "experimental": "as §2"}, "A549 cells [9]": {"test_system": "A549 cells", "assay": "Cell cycle analysis (PI staining, flow cytometry), A549", "format": "cell-based, human", "experimental": "(§3) A549 or K562 cells were separately seeded at 4.0 × 10^5cells/well in six-well plates and incubated for 24 h until adherent. […] After treatment, the cells were collected, and washed twice with pre-cooled PBS and then fixed with ice-cold ethanol (70%), subsequently kept 4 °C for overnight. After washing twice with PBS, cells were incubated at 37 °C with 100 µ L RNase A for 30 min. After this, cells were incubated with 400 µL PI for 30 min at 4 °C. Finally, the cell cycle distribution of compound 10 b was analysed via the BD FACSCalibur flow cytometry (American BD Corporation Shanghai Co. Ltd.)"}, "K562 cells [10]": {"test_system": "K562 cells", "assay": "Cell cycle analysis (PI staining, flow cytometry), K562", "format": "cell-based, human", "experimental": "as §3"}, "A549 cells [11]": {"test_system": "A549 cells", "assay": "DAPI staining, A549", "format": "cell-based, human", "details": "1, 2 and 4 µM, 48 h", "experimental": "DAPI staining assay, A549 or K562 cells were separately seeded at 4.0 × 10^5 cells per well in six–well plates and incubated for 24 h until adherent. Next, the cells were treated with 10 b at 0, 1, 2 and 4 µM for 48 h. Then the cells were fixed with 4% paraformaldehyde for 15 min, and 1 ml/well of DAPI staining dye was added for 20 min in the dark. After adding the anti-fluorescence quencher, the cells can be imaged by an inverted fluorescence microscope."}, "A549 cells [12]": {"test_system": "A549 cells", "assay": "Wound healing migration assay, A549", "format": "cell-based, human", "details": "1 µM", "experimental": "After 24 h of growth, cells were placed in a 6-well plate, scratched using a 10 µL pipet tip on the cell surface. Then, gently wash twice with medium to remove the detached cells. The cells were treated with compound 10 b with 0.5 and 1.0 µM followed by 48 h incubation and photographed using an inverted microscope."}, "[13]": {"test_system": "EGFR, p-EGFR, Akt and p-Akt levels in A549", "assay": "Western blot, A549", "format": "cell-based, human", "details": "0.5 and 1 μM, 48 h", "experimental": "(§4) Cells were treated with different concentrations of compound for 48 h. After incubation, the cells were washed and collected. Total cell extracts were prepared with RIPA buffer, containing protease inhibitor and phosphatase inhibitor. The lysate was incubated at 0 °C for 60 min, and centrifuged at 12,000 rpm for 15 min at 4 °C to remove cellular debris. Next, the protein concentration was detected using BCA protein concentration assay kit (Beyotime, Shanghai). 20 µg of total protein was subjected to gel electrophoresis and transferred to PVDF membranes (Millipore, Burlington, MA, USA). After blocking in 5% BSA blocking buffer for 60 min, then incubated with primary antibody overnight at 4 °C, washed three times with TBST for 5 min each, followed by incubation with secondary antibody and washed. The blot was developed and exposed by chemiluminescence developer solution, which was placed on a chemiluminescence developer (Pierce, Rockford, Illinois, USA)."}, "[14]": {"test_system": "MDM2 and p53 levels in K562", "assay": "Western blot, K562", "format": "cell-based, human", "details": "0.5 µM, 48 h", "experimental": "as §4"}, "[15]": {"biological_target": "epidermal growth factor receptor (EGFR)", "details": "read-out: EGFR inhibition IC50; cited from earlier work"}, "MCF-7 cell": {"test_system": "MCF-7 cell", "parameters": "method as in PMID 33130342", "details": "cited from earlier work"}}, "note": "Where two headings read alike, the source gives them in different places."}
{"smiles": "COc1cc(-c2nnc(SCC(=O)Nc3cc(-c4c[nH]c5ccccc45)n[nH]3)s2)cc(OC)c1OC", "note": "[Compound 10b, N-(3-(1H-indol-3-yl)-1H-pyrazol-5-yl)-2-((5-(3,4,5-trimethoxyphenyl)-1,3,4-thiadiazol-2-yl)thio)acetamide]", "values": [{"measurement": "inhibition at 10 µM", "setting": "[1]; A549, 10 μM, read-out: Inhibition rate, A549", "value": "96.2 ± 0.737", "unit": "%"}, {"measurement": "IC50", "setting": "[1]; A549, 48 h, MTT assay, 48 h, read-out: In vitro cytotoxicity IC50, A549", "value": 120, "unit": "nM"}, {"measurement": "IC50", "setting": "[1]; A549, Table 2, unit inferred, repeats Table 1, read-out: A549 (IC50, Table 2)", "value": "124 ± 50", "unit": "nM"}, {"measurement": "IC50", "setting": "[1]; A549, as stated in abstract and conclusion, read-out: IC50 against A549", "value": 12, "unit": "nM"}, {"measurement": "IC50", "setting": "[2]; Homo sapiens", "value": 850, "unit": "nM"}, {"measurement": "inhibition at 10 µM", "setting": "[2]; Homo sapiens, 10 μM, read-out: Inhibition rate, PC-3", "value": "88.4 ± 5.99", "unit": "%"}, {"measurement": "IC50", "setting": "[2]", "value": "853 ± 720", "unit": "nM"}, {"measurement": "inhibition at 10 µM", "setting": "[3]; 10 μM, read-out: Inhibition rate, HepG2", "value": "92.1 ± 3.01", "unit": "%"}, {"measurement": "IC50", "setting": "[3]; MTT assay, 48 h, read-out: In vitro cytotoxicity IC50, HepG2", "value": "210 ± 70", "unit": "nM"}, {"measurement": "inhibition at 10 µM", "setting": "[4]; K562, 10 μM, read-out: Inhibition rate, K562", "value": "97.2 ± 0.526", "unit": "%"}, {"measurement": "IC50", "setting": "[4]; K562, 48 h, MTT assay, 48 h, read-out: In vitro cytotoxicity IC50, K562", "value": "13.2 ± 10", "unit": "nM"}, {"measurement": "IC50", "setting": "[4]; K562, Table 2, unit inferred, repeats Table 1, read-out: K562 (IC50, Table 2)", "value": "13.2 ± 10", "unit": "nM"}, {"measurement": "IC50", "setting": "[4]; K562, as stated in abstract and conclusion, read-out: IC50 against K562", "value": 10, "unit": "nM"}, {"measurement": "IC50 at 48 h", "setting": "[5]; HEK293 cells (normal cell line), MTT assay, 48 h, normal cell line, CC50, read-out: In vitro cytotoxicity IC50, HEK293", "value": "1120 ± 1390", "unit": "nM"}, {"measurement": "CC50", "setting": "[5]; HEK293 cells, Table 2, unit inferred, repeats Table 1", "value": "1120 ± 1390", "unit": "nM"}, {"measurement": "inhibition at 10 µM", "setting": "[6]", "value": "77.9 ± 2.08", "unit": "%"}, {"measurement": "Q2, late apoptotic cells, A549", "setting": "A549 cells [7]; 1 μM", "value": 8.36, "unit": "%"}, {"measurement": "Q2, late apoptotic cells, A549", "setting": "A549 cells [7]; 2 μM", "value": 16.0, "unit": "%"}, {"measurement": "Q2, late apoptotic cells, A549", "setting": "A549 cells [7]; 4 μM", "value": 35.7, "unit": "%"}, {"measurement": "Q2, late apoptotic cells, K562", "setting": "K562 cells [8]; 1 μM", "value": 58.2, "unit": "%"}, {"measurement": "Q2, late apoptotic cells, K562", "setting": "K562 cells [8]; 2 μM", "value": 67.8, "unit": "%"}, {"measurement": "Q2, late apoptotic cells, K562", "setting": "K562 cells [8]; 4 μM", "value": 73.2, "unit": "%"}, {"measurement": "DNA contents of the live population, G0/G1 phase, A549", "setting": "A549 cells [9]; 4 µM, 48 h", "value": 38.60, "unit": "%"}, {"measurement": "DNA contents of the live population, G2/M phase, A549", "setting": "A549 cells [9]; 4 µM, 48 h", "value": 24.33, "unit": "%"}, {"measurement": "DNA contents of the live population, S phase, A549", "setting": "A549 cells [9]; 4 µM, 48 h", "value": 27.47, "unit": "%"}, {"measurement": "cell cycle arrest in words, A549", "setting": "A549 cells [9]; dose-dependent, 1, 2, 4 µM", "value": "arresting cells in the G2/M phase"}, {"measurement": "DNA contents of the live population, G2/M phase, K562", "setting": "K562 cells [10]; 4 µM, 48 h", "value": 27.60, "unit": "%"}, {"measurement": "DNA contents of the live population, S phase, K562", "setting": "K562 cells [10]; 4 µM, 48 h", "value": 26.47, "unit": "%"}, {"measurement": "cell cycle arrest in words, K562", "setting": "K562 cells [10]; dose-dependent, 1, 2, 4 µM", "value": "arresting cells in the G2/M phase"}, {"measurement": "apoptosis by DAPI staining, in words", "setting": "A549 cells [11]", "value": "induced apoptosis"}, {"measurement": "migration of A549 cells, in words", "setting": "A549 cells [12]", "value": "could inhibit the migration of A549 cells"}, {"measurement": "p-Akt protein level in A549", "setting": "[13]", "value": "downregulated in a dose dependently manner"}, {"measurement": "p-EGFR protein level in A549", "setting": "[13]", "value": "downregulated in a dose dependently manner"}, {"measurement": "MDM2 expression in K562", "setting": "[14]", "value": "significantly downregulated"}, {"measurement": "p53 protein level in K562", "setting": "[14]", "value": "upregulated in a certain extent"}]}
{"smiles": "C=CCSc1nnc(-c2cc3ccccc3[nH]2)n1N=Cc1c[nH]c2ccccc12", "note": "[Compound C]", "values": [{"measurement": "IC50", "setting": "[15]", "value": 19.8, "unit": "nM"}]}
{"smiles": "O=C(Nc1nnc(SCc2ccc(Cl)c(Cl)c2)s1)c1cn(C2CC2)c2cc(N3CCNCC3)c(F)cc2c1=O", "note": "[Compound B]", "values": [{"measurement": "apoptosis in MCF-7 cell, in words", "setting": "MCF-7 cell", "value": "inducing apoptosis significantly"}]}
